For nine compounds, IC50 results are on record in US9834518B2, “Compounds for inhibiting cell proliferation in EGFR-driven cancers” (ARIAD Pharmaceuticals, Inc., priority 2011, dated 2017).

In test [1] the target is human EGFR (native sequence) (Homo sapiens, UniProt P00533). As to the kind of experiment: Kinase inhibition, human EGFR (native sequence). Particulars: 10 μM ATP; 10 pt curves, 3 μM top concentration (singlicates). Type of test: biochemical. An outline of the steps: (§1)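 With ATP at 10 μM, single-replicate 10-point dose curves starting at 3 μM top concentration were run against each EGFR form: wild-type, L858R, and the L858R/T790M double mutant.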
human EGFR (native sequence), sequence (P00533 25-1210): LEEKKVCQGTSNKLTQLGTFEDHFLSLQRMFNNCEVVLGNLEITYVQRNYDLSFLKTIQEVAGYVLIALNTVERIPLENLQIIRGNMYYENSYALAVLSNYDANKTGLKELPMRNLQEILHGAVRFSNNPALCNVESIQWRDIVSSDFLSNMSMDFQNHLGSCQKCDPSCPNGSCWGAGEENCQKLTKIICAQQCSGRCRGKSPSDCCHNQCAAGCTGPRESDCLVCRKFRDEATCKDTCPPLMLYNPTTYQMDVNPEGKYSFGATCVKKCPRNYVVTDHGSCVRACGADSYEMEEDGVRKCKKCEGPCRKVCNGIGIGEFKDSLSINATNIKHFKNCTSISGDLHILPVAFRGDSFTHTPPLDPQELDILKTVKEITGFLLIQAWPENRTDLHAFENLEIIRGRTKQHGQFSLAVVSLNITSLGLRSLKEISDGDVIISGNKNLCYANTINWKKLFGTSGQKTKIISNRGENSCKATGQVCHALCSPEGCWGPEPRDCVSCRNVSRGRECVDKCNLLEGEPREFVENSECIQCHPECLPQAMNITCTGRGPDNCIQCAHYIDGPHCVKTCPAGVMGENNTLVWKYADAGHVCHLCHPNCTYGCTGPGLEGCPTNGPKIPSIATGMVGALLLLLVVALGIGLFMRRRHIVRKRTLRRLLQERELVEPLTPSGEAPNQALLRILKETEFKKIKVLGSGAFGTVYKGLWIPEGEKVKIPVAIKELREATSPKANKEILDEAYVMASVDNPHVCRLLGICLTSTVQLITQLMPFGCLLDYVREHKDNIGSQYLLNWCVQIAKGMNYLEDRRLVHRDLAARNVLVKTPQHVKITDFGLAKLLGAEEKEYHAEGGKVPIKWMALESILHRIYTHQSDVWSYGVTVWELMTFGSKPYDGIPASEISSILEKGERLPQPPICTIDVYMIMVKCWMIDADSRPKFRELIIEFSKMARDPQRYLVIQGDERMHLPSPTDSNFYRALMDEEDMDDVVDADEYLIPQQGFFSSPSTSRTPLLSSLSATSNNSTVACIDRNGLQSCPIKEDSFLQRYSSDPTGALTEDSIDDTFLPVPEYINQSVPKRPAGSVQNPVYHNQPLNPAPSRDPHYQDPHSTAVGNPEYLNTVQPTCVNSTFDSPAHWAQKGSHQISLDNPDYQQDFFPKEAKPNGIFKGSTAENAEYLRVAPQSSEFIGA

For test [2], the target named is EGFR bearing the L858R/T790M double mutation (Homo sapiens, UniProt P00533, L858R/T790M). In words: Kinase inhibition, EGFR L858R/T790M. Type of test: biochemical. The following applies: 10 μM ATP; 10 pt curves, 3 μM top concentration (singlicates). A digest of the protocol: as §1
EGFR bearing the L858R/T790M double mutation, sequence (P00533 25-1210 T790M/L858R): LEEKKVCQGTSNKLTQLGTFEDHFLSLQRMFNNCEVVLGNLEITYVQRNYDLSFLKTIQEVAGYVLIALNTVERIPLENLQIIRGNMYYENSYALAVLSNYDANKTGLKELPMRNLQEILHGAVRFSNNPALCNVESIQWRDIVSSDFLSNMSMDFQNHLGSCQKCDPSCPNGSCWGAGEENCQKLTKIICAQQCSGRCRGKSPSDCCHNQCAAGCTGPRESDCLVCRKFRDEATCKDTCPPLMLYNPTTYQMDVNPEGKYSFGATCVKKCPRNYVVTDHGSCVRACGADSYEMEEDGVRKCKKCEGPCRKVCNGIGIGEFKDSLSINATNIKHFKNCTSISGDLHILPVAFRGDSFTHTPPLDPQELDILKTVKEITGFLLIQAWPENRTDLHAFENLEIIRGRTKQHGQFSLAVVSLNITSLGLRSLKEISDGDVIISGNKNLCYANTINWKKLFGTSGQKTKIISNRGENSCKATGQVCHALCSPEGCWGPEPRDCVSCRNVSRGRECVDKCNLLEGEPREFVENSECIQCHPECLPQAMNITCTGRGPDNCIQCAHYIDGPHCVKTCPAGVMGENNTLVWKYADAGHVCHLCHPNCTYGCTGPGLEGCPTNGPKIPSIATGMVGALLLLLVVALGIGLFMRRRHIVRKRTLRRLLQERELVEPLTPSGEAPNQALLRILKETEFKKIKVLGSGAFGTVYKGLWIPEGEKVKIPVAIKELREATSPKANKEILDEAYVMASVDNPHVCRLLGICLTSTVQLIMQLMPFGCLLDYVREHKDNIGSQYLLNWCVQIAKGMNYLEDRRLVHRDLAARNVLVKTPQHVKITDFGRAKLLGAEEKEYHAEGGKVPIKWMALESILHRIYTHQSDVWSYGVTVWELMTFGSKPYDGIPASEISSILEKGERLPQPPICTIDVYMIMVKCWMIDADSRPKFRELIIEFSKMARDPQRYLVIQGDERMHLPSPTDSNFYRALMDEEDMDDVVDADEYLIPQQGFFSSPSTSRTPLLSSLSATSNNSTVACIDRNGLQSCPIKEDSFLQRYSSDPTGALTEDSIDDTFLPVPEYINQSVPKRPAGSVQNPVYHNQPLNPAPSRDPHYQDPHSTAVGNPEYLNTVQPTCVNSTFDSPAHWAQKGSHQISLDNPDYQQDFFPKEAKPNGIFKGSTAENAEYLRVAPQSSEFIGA
Test [3] addresses BAF3 EGFR DEL T790M PURO POOL (Homo sapiens, UniProt P00533, DEL746-750/T790M, cells depend on it). As to the kind of experiment: Cell proliferation (MTT), BAF3 EGFR DEL T790M. Type of test: cell-based. An outline of the steps:
(§2)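 Compounds were tested on BaF3 cells bearing target EGFR mutations and on control BaF3 cells with wildtype EGFR; viability was then determined by MTT.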

Test [4] deals with EGFR bearing the L858R mution (Homo sapiens, UniProt P00533, L858R). As to the kind of experiment: Kinase inhibition, EGFR L858R. Type of test: biochemical. Particulars: 10 μM ATP; 10 pt curves, 3 μM top concentration (singlicates). A digest of the protocol:
as §1

The subject of test [5] is BAF3 EGFR L858R-T790M PURO POOL. As to the kind of experiment: Cell proliferation (MTT), BAF3 EGFR L858R-T790M. Type of test: cell-based. Particulars: Ba/F3 EGFR. An outline of the steps: as §2
The next test concerns BAF3 PARENTAL
As to the kind of experiment: Cell proliferation (MTT), BAF3 parental. Type of test: cell-based. The following applies: Mus musculus. Here is the method:
We also assessed the antiproliferative activity of compounds of Formula (I) against BaF3 cells expressing the target EGFR mutations or control (i.e., cell lines expressing wildtype EGFR). Assays were conducted using MTT.

Structures are written as SMILES.

BAF3 EGFR DEL T790M PURO POOL, sequence (P00533 with tags, fused parts or gaps DEL746-750/T790M): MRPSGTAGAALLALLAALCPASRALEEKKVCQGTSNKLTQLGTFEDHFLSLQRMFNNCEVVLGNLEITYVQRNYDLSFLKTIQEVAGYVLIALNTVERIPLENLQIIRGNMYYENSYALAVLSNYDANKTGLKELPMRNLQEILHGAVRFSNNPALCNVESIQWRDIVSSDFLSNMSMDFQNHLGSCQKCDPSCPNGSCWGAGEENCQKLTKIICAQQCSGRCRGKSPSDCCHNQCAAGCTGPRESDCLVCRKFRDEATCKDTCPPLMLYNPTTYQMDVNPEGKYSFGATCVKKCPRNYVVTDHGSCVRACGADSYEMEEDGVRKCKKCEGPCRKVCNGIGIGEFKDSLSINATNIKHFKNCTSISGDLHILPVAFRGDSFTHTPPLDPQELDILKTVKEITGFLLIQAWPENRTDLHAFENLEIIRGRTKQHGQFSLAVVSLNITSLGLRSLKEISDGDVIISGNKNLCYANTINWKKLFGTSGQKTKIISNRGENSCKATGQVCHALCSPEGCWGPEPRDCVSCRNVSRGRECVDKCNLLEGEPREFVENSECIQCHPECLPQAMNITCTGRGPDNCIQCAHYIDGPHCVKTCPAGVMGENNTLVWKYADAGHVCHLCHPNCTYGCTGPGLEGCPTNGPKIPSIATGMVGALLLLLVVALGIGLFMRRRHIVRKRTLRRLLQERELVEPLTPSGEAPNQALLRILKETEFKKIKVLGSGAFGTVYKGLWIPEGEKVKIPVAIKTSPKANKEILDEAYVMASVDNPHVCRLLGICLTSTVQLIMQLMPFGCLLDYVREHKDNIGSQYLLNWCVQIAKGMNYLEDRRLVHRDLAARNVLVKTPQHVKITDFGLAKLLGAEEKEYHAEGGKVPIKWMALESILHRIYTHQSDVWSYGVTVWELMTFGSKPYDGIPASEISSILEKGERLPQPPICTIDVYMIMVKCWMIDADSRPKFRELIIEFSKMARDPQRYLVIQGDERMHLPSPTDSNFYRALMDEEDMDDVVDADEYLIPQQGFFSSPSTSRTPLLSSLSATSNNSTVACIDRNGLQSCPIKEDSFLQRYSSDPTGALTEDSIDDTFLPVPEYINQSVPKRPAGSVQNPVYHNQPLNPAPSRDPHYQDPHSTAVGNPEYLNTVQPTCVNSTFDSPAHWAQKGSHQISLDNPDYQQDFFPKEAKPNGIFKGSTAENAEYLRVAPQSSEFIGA
EGFR bearing the L858R mution, sequence (P00533 25-1210 L858R): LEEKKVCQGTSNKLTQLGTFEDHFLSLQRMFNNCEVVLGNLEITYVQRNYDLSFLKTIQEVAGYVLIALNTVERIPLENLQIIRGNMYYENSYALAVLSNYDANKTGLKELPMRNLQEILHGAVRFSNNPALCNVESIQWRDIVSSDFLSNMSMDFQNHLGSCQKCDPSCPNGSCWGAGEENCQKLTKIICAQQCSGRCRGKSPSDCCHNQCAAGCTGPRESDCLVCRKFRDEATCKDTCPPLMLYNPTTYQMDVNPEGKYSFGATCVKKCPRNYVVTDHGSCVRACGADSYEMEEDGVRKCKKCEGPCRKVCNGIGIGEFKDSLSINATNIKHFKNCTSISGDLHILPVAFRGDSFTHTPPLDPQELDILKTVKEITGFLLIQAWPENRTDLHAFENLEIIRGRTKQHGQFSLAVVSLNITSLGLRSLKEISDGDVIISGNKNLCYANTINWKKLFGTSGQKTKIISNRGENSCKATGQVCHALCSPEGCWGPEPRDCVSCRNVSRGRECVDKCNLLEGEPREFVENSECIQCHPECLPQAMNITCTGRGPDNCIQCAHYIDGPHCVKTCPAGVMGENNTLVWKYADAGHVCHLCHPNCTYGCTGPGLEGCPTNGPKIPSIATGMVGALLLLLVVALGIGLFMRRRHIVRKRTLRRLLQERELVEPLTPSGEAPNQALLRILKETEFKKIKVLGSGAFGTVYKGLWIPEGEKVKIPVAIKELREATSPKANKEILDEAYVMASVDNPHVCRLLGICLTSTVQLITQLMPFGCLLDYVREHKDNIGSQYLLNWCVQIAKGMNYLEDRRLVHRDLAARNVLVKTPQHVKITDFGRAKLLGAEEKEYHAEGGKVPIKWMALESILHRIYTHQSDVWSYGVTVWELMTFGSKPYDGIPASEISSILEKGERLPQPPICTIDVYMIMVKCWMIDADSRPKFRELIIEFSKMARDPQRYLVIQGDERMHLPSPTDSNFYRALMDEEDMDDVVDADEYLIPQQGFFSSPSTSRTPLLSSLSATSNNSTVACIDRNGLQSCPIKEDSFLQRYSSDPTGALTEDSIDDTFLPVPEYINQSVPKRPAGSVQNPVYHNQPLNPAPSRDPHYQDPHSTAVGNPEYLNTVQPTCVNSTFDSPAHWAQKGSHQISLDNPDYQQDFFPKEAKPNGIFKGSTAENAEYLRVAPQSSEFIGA

For `C=CC(=O)Nc1ccc(OC)c(Nc2nccc(Nc3ccccc3P(C)(C)=O)n2)c1` [Example 13, N-(3-((4-((2-(dimethylphosphoryl)phenyl)amino)pyrimidin-2-yl)amino)-4-methoxyphenyl)acrylamide], the concentration for half-maximal inhibition (IC50) in test [1] is ≥ 250 nM; in test [2], < 51 nM; in test [3], 101 to 250 nM; in test [4], 51 to 100 nM; in test [5], ≥ 250 nM; in the test on BAF3 PARENTAL it was ≥ 250 nM.
As to `C=CC(=O)Nc1ccc(OC)c(Nc2ncc(Cl)c(Nc3cccc(C)c3P(C)(C)=O)n2)c1` [Example 14, N-(3-((5-chloro-4-((2-(dimethylphosphoryl)-3-methylphenyl)amino)pyrimidin-2-yl)amino)-4-methoxyphenyl)acrylamide], the concentration for half-maximal inhibition (IC50) is 51 to 100 nM in test [1]; < 51 nM in test [2]; < 51 nM in test [3]; < 51 nM in test [4]; < 51 nM in test [5]; ≥ 250 nM in the test with BAF3 PARENTAL.
Consider `C=CC(=O)Nc1ccc(OC)c(Nc2ncc(Cl)c(Nc3ccc(F)cc3P(C)(C)=O)n2)c1` [Example 54, N-(3-((5-chloro-4-((2-(dimethylphosphoryl)-4-fluorophenyl)amino)pyrimidin-2-yl)amino)-4-methoxyphenyl)acrylamide], for which the concentration for half-maximal inhibition (IC50) in test [1] was 101 to 250 nM; in test [2], < 51 nM; in test [3] it was < 51 nM; in test [4], < 51 nM; in test [5] it was < 51 nM; in the test with BAF3 PARENTAL, ≥ 250 nM.
As for `C=CC(=O)Nc1cccc(Nc2ncc(Cl)c(Nc3ccccc3P(C)(C)=O)n2)c1` [Example 5d, N-(3-((5-chloro-4-((2-(dimethylphosphoryl)phenyl)amino)pyrimidin-2-yl)amino)phenyl)acrylamide], the half-inhibitory concentration (IC50) was 101 to 250 nM in test [1]; < 51 nM in test [2]; < 51 nM in test [3]; < 51 nM in test [4]; < 51 nM in test [5]; 51 to 100 nM with BAF3 PARENTAL.
As for `COc1ccc(N2C(=O)C=CC2=O)cc1Nc1ncc(Cl)c(Nc2ccccc2P(C)(C)=O)n1` [Example 46, 1-(3-((5-chloro-4-((2-(dimethylphosphoryl)phenyl)amino)pyrimidin-2-yl)amino)-4-methoxyphenyl)-1H-pyrrole-2,5-dione], the concentration for half-maximal inhibition (IC50) in test [1] was ≥ 250 nM; in test [2], ≥ 250 nM; in test [3] it was ≥ 250 nM; in test [4], 101 to 250 nM; in test [5] it was ≥ 250 nM; in the test on BAF3 PARENTAL it was ≥ 250 nM.
Take `C=CC(=O)Nc1ccc(OC)c(Nc2ncc(C3CC3)c(Nc3ccccc3P(C)(C)=O)n2)c1` [Example 65, N-(3-((5-cyclopropyl-4-((2-(dimethylphosphoryl)phenyl)amino)pyrimidin-2-yl)amino)-4-methoxyphenyl)acrylamide]: the IC50 in test [1] was 51 to 100 nM; in test [2], < 51 nM; in test [3], < 51 nM; in test [4], < 51 nM; in test [5], < 51 nM; in the test on BAF3 PARENTAL it was ≥ 250 nM.
On to `C=CC(=O)Nc1ccc(OC)c(Nc2ncc(Br)c(Nc3ccccc3P(C)(C)=O)n2)c1` [Example 12, N-(3-((5-bromo-4-((2-(dimethylphosphoryl)phenyl)amino)pyrimidin-2-yl)amino)-4-methoxyphenyl)acrylamide], for which the 50% inhibitory concentration (IC50) was < 51 nM in test [1]; < 51 nM in test [2]; < 51 nM in test [3]; < 51 nM in test [4]; < 51 nM in test [5]; ≥ 250 nM with BAF3 PARENTAL.
For the compound `C=CC(=O)Nc1cc(Nc2ncc(Cl)c(Nc3ccccc3P(C)(C)=O)n2)c(OC)cc1CCCN(CC)CC` [Example 40, N-(5-((5-chloro-4-((2-(dimethylphosphoryl)phenyl)amino)pyrimidin-2-yl)amino)-2-(3-(diethylamino)propyl)-4-methoxyphenyl)acrylamide], the IC50 was < 51 nM in test [1]; < 51 nM in test [2]; < 51 nM in test [3]; < 51 nM in test [4]; ≥ 250 nM in test [5]; ≥ 250 nM in the test on BAF3 PARENTAL.
As to `C=CC(=O)Nc1cc(Nc2ncc(Cl)c(Nc3ccccc3P(C)(C)=O)n2)c(OC)cc1N1CCN(C)CC1` [Example 18, N-(5-((5-chloro-4-((2-(dimethylphosphoryl)phenyl)amino)pyrimidin-2-yl)amino)-4-methoxy-2-(4-methylpiperazin-1-yl)phenyl)acrylamide], the 50% inhibitory concentration (IC50) in test [1] is 51 to 100 nM; in test [2] it was < 51 nM; in test [3], < 51 nM; in test [4], < 51 nM; in test [5] it was 51 to 100 nM; in the test on BAF3 PARENTAL it was ≥ 250 nM.

As usually defined, the IC50 is the concentration at which inhibition is half-maximal.
